We go through 30 compounds from patent publication US20240425484A1, “INHIBITORS OF TYK2” (Atomwise Inc., priority 2023, published 2024).

The assay addresses T1, TYK2-JH2 (Homo sapiens, UniProt P29597).
T1 construct: TYK JH2 enzyme mix (ChemPartner: CP20210818A-BV); purchased ChemPartner CP20210818A-BV
The assay can be described thus: TYK2-JH2 HTRF binding assay (ligand efficiency). The conditions noted are these: calculated (Equation 1) from IC50 of the TYK-JH2 binding assay. The protocol: The following example describes the TYK2-JH2 HTRF binding assay used to determine the ligand efficiency of the TYK2 inhibitors.
To calculate ligand efficiency, Equation 1 is applied: […]
in which IC50 comes from the binding assay used to determine compound potency.
TYK JH2 enzyme mix (ChemPartner: CP20210818A-BV), tracer (ChemPartner: CP-0029472-051) and mAb Anti-6HIS Tb cryptate Gold (Cisbio: Cat No. 61HI2TLA) mix were prepared in assay buffer (10 mM MgCl2, 20 mM HEPES pH 7.5, 0.01% Triton X-100, 1 mM DTT). Compounds diluted in DMSO (Final Concentrations 0.1 to 0.000005 [μM]) and enzyme mix (0.5 nM Final Concentration) were added to 384 well plates, briefly centrifuged and incubated at room temperature for 10 minutes. After incubation, tracer mix (Tracer-35 nM final concentration); (MAb Anti-6HIS Tb cryptate Gold-0.5X final)) was added, briefly centrifuged then incubate at room temperature 60 minutes. After incubation, plates were read by Envision TR-FRET (Ex340/Em495/520) protocol (PerkinElmer-Envision 2104 multilabel plate reader).

T1 sequence (P29597 589-875 limits assumed): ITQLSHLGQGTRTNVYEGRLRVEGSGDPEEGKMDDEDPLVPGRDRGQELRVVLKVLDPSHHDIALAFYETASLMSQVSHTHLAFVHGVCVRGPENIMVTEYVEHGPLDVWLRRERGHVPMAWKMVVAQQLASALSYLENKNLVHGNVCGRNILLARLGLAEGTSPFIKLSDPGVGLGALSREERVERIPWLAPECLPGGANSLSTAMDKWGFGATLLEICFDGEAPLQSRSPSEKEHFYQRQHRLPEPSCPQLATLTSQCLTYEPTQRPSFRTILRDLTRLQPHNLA

In the case of `CC(c1ccc(Nc2cc(Nc3ncccc3S(C)(=O)=O)ncn2)nc1)N1CC2(CC(F)C2)C1` (stereo in doubt) [Compound 10, N^4-(5-((1R)-1-(6-fluoro-2-azaspiro[3.3]heptan-2-yl)ethyl)pyridin-2-yl)-N^6-(3-(methylsulfonyl)pyridin-2-yl)pyrimidine-4,6-diamine], the “Ligand Efficiency” value is listed as “††† (†††: >0.39)”.

On to `CC(c1ccc(Nc2cc(Nc3ncccc3S(C)(=O)=O)ncn2)nc1)N1CCCC1` (stereo in doubt) [Compound 15, (R)—N^4-(3-(methylsulfonyl)pyridin-2-yl)-N^6-(5-(1-(pyrrolidin-1-yl)ethyl)pyridin-2-yl)pyrimidine-4,6-diamine], for which the “Ligand Efficiency” value was “††† (†††: >0.39)”.

On to `CC(NC1COC1)c1ccc(Nc2cc(Nc3ccccc3S(C)(=O)=O)ncn2)nc1` (stereo in doubt) [Compound 40, (R)—N^4-(2-(methylsulfonyl)phenyl)-N^6-(5-(1-(oxetan-3-ylamino)ethyl)pyridin-2-yl)pyrimidine-4,6-diamine], for which the “Ligand Efficiency” value is reported as “††† (†††: >0.39)”.

With `CS(=O)(=O)c1cccnc1Nc1cc(Nc2ccc(N3CCN(C4CC4)CC3)cn2)ncn1` [Compound 7, N^4-(5-(4-cyclopropylpiperazin-1-yl)pyridin-2-yl)-N^6-(3-(methylsulfonyl)pyridin-2-yl)pyrimidine-4,6-diamine], the “Ligand Efficiency” value is “††† (†††: >0.39)”.

`CS(=O)(=O)c1cccnc1Nc1cc(Nc2ccc3c(n2)CC[C@@H]3N2CC3(COC3)C2)ncn1` [Compound 9, N^4-((5S)-5-(2-oxa-6-azaspiro[3.3]heptan-6-yl)-6,7-dihydro-5H-cyclopenta[b]pyridin-2-yl)-N^6-(3-(methylsulfonyl)pyridin-2-yl)pyrimidine-4,6-diamine]: the “Ligand Efficiency” value was “††† (†††: >0.39)”.

In the case of `C[C@@H](c1ccc(Nc2cc(Nc3ncc(Cl)cc3S(C)(=O)=O)ncn2)nc1)N1CC2(COC2)C1` [Compound 14, (S)—N^4-(5-(1-(2-oxa-6-azaspiro[3.3]heptan-6-yl)ethyl)pyridin-2-yl)-N^6-(5-chloro-3-(methylsulfonyl)pyridin-2-yl)pyrimidine-4,6-diamine], the “Ligand Efficiency” value is “††† (†††: >0.39)”.

With `CS(=O)(=O)c1cccnc1Nc1cc(Nc2cccc(C(F)(F)F)n2)ncn1` [Compound 19, N^4-(3-(methylsulfonyl)pyridin-2-yl)-N^6-(6-(trifluoromethyl)pyridin-2-yl)pyrimidine-4,6-diamine], the “Ligand Efficiency” value is “††† (†††: >0.39)”.

Consider `C[C@H]1CN(C)CCN1c1ccc(Nc2cc(Nc3ncccc3S(C)(=O)=O)ncn2)nc1` [Compound 20, (S)—N^4-(5-(2,4-dimethylpiperazin-1-yl)pyridin-2-yl)-N^6-(3-(methylsulfonyl)pyridin-2-yl)pyrimidine-4,6-diamine], for which the “Ligand Efficiency” value is given as “††† (†††: >0.39)”.

In the case of `CC1(Nc2ccc(Nc3cc(Nc4ncccc4S(C)(=O)=O)ncn3)nc2)COC1` [Compound 21, N^4-(5-((3-methyloxetan-3-yl)amino)pyridin-2-yl)-N^6-(3-(methylsulfonyl)pyridin-2-yl)pyrimidine-4,6-diamine], the “Ligand Efficiency” value was “††† (†††: >0.39)”.

For the compound `CC(c1ccc(Nc2cc(Nc3ncccc3S(C)(=O)=O)ncn2)nc1)N1CC(F)C1` (stereo not drawn) [Compound 22, N^4-(5-(1-(3-fluoroazetidin-1-yl)ethyl)pyridin-2-yl)-N^6-(3-(methylsulfonyl)pyridin-2-yl)pyrimidine-4,6-diamine], the “Ligand Efficiency” value was “††† (†††: >0.39)”.

On to `Cc1cc(Nc2cc(Nc3ncccc3S(C)(=O)=O)ncn2)ncc1NC1(C)COC1` [Compound 23, N^4-(4-methyl-5-((3-methyloxetan-3-yl)amino)pyridin-2-yl)-N^6-(3-(methylsulfonyl)pyridin-2-yl)pyrimidine-4,6-diamine], for which the “Ligand Efficiency” value is on record as “††† (†††: >0.39)”.

Regarding `C[C@@H](c1ccc(Nc2cc(Nc3ncccc3S(C)(=O)=O)ncn2)nc1)N1C[C@H]2COC[C@H]2C1` [Compound 25, N^4-(3-(methylsulfonyl)pyridin-2-yl)-N^6-(5-(1-((3aR,6aS)-tetrahydro-1H-furo[3,4-c]pyrrol-5 (3H)-yl)ethyl)pyridin-2-yl)pyrimidine-4,6-diamine], the “Ligand Efficiency” value was “††† (†††: >0.39)”.

In the case of `CS(=O)(=O)c1ccccc1Nc1cc(Nc2ccc3c(n2)CCCC3N2CC3(CCOCC3)C2)ncn1` (stereo not drawn) [Compound 27, N^4-(5-(7-oxa-2-azaspiro[3.5]nonan-2-yl)-5,6,7,8-tetrahydroquinolin-2-yl)-N^6-(2-(methylsulfonyl)phenyl)pyrimidine-4,6-diamine], the “Ligand Efficiency” value is “† (†: <0.37)”.

`C[C@@H](c1ccc(Nc2cc(Nc3ncccc3S(C)(=O)=O)ncn2)nc1)N1CC2(CCOC2)C1` [Compound 32, (S)—N^4-(5-(1-(6-oxa-2-azaspiro[3.4]octan-2-yl)ethyl)pyridin-2-yl)-N^6-(3-(methylsulfonyl)pyridin-2-yl)pyrimidine-4,6-diamine]: the “Ligand Efficiency” value is “††† (†††: >0.39)”.

For the compound `CC(NC1CC(F)(F)C1)c1ccc(Nc2cc(Nc3ncccc3S(C)(=O)=O)ncn2)nc1` (stereo not drawn) [Compound 35, N^4-(5-(1-(3,3-difluorocyclobutylamino)ethyl)pyridin-2-yl)-N^6-(3-(methylsulfonyl)pyridin-2-yl)pyrimidine-4,6-diamine], the “Ligand Efficiency” value is reported as “††† (†††: >0.39)”.

For the compound `CC1(CNc2ccc(Nc3cc(Nc4ncccc4S(C)(=O)=O)ncn3)nc2)COC1` [Compound 36, N^4-(5-(((3-methyloxetan-3-yl)methyl)amino)pyridin-2-yl)-N^6-(3-(methylsulfonyl)pyridin-2-yl)pyrimidine-4,6-diamine], the “Ligand Efficiency” value is listed as “††† (†††: >0.39)”.

For the compound `CS(=O)(=O)c1cccnc1Nc1cc(Nc2ccc(NC3CC(F)(F)C3)cn2)ncn1` [Compound 37, N^4-(5-(3,3-difluorocyclobutylamino)pyridin-2-yl)-N^6-(3-(methylsulfonyl)pyridin-2-yl)pyrimidine-4,6-diamine], the “Ligand Efficiency” value is reported as “††† (†††: >0.39)”.

For `CS(=O)(=O)c1cccnc1Nc1cc(Nc2ccc(C(=O)NC3CC(F)(F)C3)cn2)ncn1` [Compound 38, N-(3,3-difluorocyclobutyl)-6-(6-(3-(methylsulfonyl)pyridine-2-ylamino)pyrimidin-4-ylamino) nicotinamide], the “Ligand Efficiency” value is given as “††† (†††: >0.39)”.

As to `CS(=O)(=O)c1ccccc1Nc1cc(Nc2ccc(N3CCOCC3)cn2)ncn1` [Compound 42, N^4-(2-(methylsulfonyl)phenyl)-N^6-(5-morpholinopyridin-2-yl)pyrimidine-4,6-diamine], the “Ligand Efficiency” value is “††† (†††: >0.39)”.

`Cc1ccnc(Nc2cc(Nc3ccccc3C(N)=O)ncn2)c1` [Compound 45, 2-((6-((4-methylpyridin-2-yl)amino)pyrimidin-4-yl)amino)benzamide]: the “Ligand Efficiency” value is on record as “††† (†††: >0.39)”.

As for `Cc1cccc(Nc2cc(Nc3ccccc3C(N)=O)ncn2)n1` [Compound 46], the “Ligand Efficiency” value is recorded as “††† (†††: >0.39)”.

As for `Cc1cnnc(Nc2cc(Nc3ccccc3C(N)=O)ncn2)c1` [Compound 47, 2-((6-((5-methylpyridazin-3-yl)amino)pyrimidin-4-yl)amino)benzamide], the “Ligand Efficiency” value was “††† (†††: >0.39)”.

With `Cc1nccc(Nc2cc(Nc3ccccc3C(N)=O)ncn2)n1` [Compound 48, 2-((6-((2-methylpyrimidin-4-yl)amino)pyrimidin-4-yl)amino)benzamide], the “Ligand Efficiency” value is on record as “††† (†††: >0.39)”.

Consider `Cc1cncc(Nc2cc(Nc3ccccc3C(N)=O)ncn2)n1` [Compound 49, 2-(6-(6-methylpyrazin-2-ylamino)pyrimidin-4-ylamino)benzamide], for which the “Ligand Efficiency” value is listed as “††† (†††: >0.39)”.

As for `Cc1cccc(Nc2cc(Nc3cccnc3C(N)=O)ncn2)n1` [Compound 50, 3-((6-((6-methylpyridin-2-yl)amino)pyrimidin-4-yl)amino) picolinamide], the “Ligand Efficiency” value is “††† (†††: >0.39)”.

With `Cc1cccc(Nc2cc(Nc3ccncc3C(N)=O)ncn2)n1` [Compound 51, 4-((6-((6-methylpyridin-2-yl)amino)pyrimidin-4-yl)amino) nicotinamide], the “Ligand Efficiency” value is on record as “††† (†††: >0.39)”.

On to `Cc1cccc(Nc2cc(Nc3ncccc3C(N)=O)ncn2)n1` [Compound 52, 2-((6-((6-methylpyridin-2-yl)amino)pyrimidin-4-yl)amino) nicotinamide], for which the “Ligand Efficiency” value is given as “††† (†††: >0.39)”.

Consider `Cc1cccc(Nc2cc(Nc3ccccc3NS(C)(=O)=O)ncn2)n1` [Compound 53, N-(2-(6-(6-methylpyridin-2-ylamino)pyrimidin-4-ylamino)phenyl) methanesulfonamide], for which the “Ligand Efficiency” value is “††† (†††: >0.39)”.

Take `C[C@H]1COCCN1c1ccc(Nc2cc(Nc3ccccc3S(C)(=O)=O)ncn2)nc1` [Compound 54, (S)—N^4-(5-(3-methylmorpholino)pyridin-2-yl)-N^6-(2-(methylsulfonyl)phenyl)pyrimidine-4,6-diamine]: the “Ligand Efficiency” value is on record as “† (†: <0.37)”.

In the case of `Cc1cccc(Nc2cc(Nc3ccccc3S(C)(=O)=O)nc(C)n2)n1` [Compound 56, 2-methyl-N^4-(6-methylpyridin-2-yl)-N^6-(2-(methylsulfonyl)phenyl)pyrimidine-4,6-diamine], the “Ligand Efficiency” value is listed as “† (†: <0.37)”.
